{"source": "patent US20240050571A1", "about": "“CARBORANE HYDROXAMIC ACID MATRIX METALLOPROTEINASE INHIBITORS AND AGENTS FOR BORON NEUTRON CAPTURE THERAPY” (LOYOLA UNIVERSITY OF CHICAGO, priority 2018, published 2024)", "key": {"MMP-2": {"biological_target": "MMP-2 (Homo sapiens (Human), UniProt P08253)", "sequence (P08253 110-660 limits assumed)": "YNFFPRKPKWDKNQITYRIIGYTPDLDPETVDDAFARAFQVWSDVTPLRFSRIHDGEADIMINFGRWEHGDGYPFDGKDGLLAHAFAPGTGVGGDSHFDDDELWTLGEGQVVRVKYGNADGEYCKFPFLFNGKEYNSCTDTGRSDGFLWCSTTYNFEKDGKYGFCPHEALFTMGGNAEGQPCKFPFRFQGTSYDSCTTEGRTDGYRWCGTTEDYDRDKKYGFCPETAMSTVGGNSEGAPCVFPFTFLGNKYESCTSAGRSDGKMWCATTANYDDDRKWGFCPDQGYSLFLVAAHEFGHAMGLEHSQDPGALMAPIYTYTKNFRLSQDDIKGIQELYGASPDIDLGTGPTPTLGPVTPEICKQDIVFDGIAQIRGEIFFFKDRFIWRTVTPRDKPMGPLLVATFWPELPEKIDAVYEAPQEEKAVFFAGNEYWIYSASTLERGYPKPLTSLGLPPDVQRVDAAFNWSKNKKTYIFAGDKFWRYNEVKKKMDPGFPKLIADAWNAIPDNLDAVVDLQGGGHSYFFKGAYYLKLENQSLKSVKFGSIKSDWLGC", "settings": "read-out: MMP-2 IC50"}, "MMP-9": {"biological_target": "MMP-9 (Homo sapiens (Human), UniProt P14780)", "sequence (P14780 107-707 limits assumed)": "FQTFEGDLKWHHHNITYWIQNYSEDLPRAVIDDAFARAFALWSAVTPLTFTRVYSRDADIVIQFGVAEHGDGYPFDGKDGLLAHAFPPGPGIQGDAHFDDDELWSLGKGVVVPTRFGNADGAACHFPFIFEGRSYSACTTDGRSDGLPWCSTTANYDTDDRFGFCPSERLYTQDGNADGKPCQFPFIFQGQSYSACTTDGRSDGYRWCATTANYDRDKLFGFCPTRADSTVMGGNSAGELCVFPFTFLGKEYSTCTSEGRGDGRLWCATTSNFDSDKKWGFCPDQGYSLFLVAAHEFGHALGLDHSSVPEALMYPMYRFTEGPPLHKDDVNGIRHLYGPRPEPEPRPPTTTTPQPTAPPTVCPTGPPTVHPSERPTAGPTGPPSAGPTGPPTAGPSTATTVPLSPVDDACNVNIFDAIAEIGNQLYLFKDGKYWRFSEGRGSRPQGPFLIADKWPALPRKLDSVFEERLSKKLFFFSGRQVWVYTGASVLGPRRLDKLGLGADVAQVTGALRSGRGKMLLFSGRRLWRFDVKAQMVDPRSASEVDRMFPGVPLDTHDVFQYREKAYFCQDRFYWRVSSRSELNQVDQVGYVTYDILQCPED", "assay": "Assay for inhibition of MMP (fluorescence), MMP-9", "settings": "read-out: MMP-9 IC50"}}}
{"smiles": "COc1ccc(S(=O)(=O)N(CC(=O)NO)CC(C)C)cc1", "note": "[NNGH, N-Isobutyl-N-(4-methoxyphenylsulfonyl)glycyl hydroxamic acid]", "values": [{"measurement": "IC50", "setting": "MMP-2", "value": 2.7, "unit": "nM"}, {"measurement": "IC50", "setting": "MMP-9", "value": 5, "unit": "nM"}]}
